“And” between values parts separate entries of the source, which are not always exact repeats. Equal values may be shown once. “Also recorded” adds a separate entry of the source. Numbered stars: 1 amine (or outer) side, 2 acyl side, 3 side chain; on linkers, the order of the positions; unused ones are H or OH. Bridge positions count the residues as written; N and C are the ends. Square brackets hold non-standard residues; d marks the D form. Peptide text beside a SMILES is read from it. βAla(3R-(1-naphthyl)) = O=C(C[C@@H](N[*:1])c1cccc2ccccc12)[*:2]; βAla(3S-(1-naphthyl)) = O=C(C[C@H](N[*:1])c1cccc2ccccc12)[*:2]
Tests used:
[1] = system: normal breast epithelial cell line MCF-10A; conditions: for IC50: read-out: antiproliferative activity IC50, MCF-10A
Procedure: (§1) X=Anapa, amino naphthyl propionic acid, specifically, 3-amino 3(1-napthyl) propionic acid. Single letter amino acid code was used for peptide sequence. Small letters refer to D amino acids and capital letters refer to L amino acids. Chirality of Anapa was indicated with R and S configuration in italics. Antiproliferative activity of peptides in cancer cell lines are given as IC50 μM. Disulfide bond between the cysteines is shown in underline.
Design of grafted peptides: Peptidomimetics were designed to bind to HER2 protein domain IV and inhibit PPI of HER2:HER3 and EGFR:HER2.

[2] = for appearance in water (turbidity): 0.5 mg in 1 mL water, compared to blank
Procedure: 0.5 mg of each compound was added to water in 1 mL. […] If a compound is highly soluble in water, it may not pass through intestinal barrier. Compound should be slightly lipophilic to pass through intestinal barrier.

[3] = system: NCI-H1975 (EGFR L858R/T790M double mutation); conditions: read-out: antiproliferative activity IC50
Procedure: as §1
The inventor therefor designed compounds to bind to the extracellular domain and inhibit the downstream signaling. NCI-H1975 is a cell line that harbors the EGFR L858R/T790M double mutation.

[4] = system: phosphorylation of HER2 kinase; assay: Western blot of HER2 phosphorylation in A549 cells; type: cell-based; conditions: 1 μM, incubation 40 h
Procedure: Lapatinib (2 μM) was used as positive control. Incubation 40 h. *p<0.05 **P<0.01.
Lapatinib, a known inhibitor of HER2, was used as a positive control.

[5] = Stability in human serum (in vitro, HPLC); type: in vitro ADME
Excerpt: At different time points, aliquots of sample were taken and subjected to extraction of compound using cold acetonitrile. Samples were freeze dried and quantified by HPLC method. […] Nearly 60% of sample is intact peptide.

[6] = system: EGFR mutated NSCLC cell line NCI-H1975; assay: Synergy with TKI (isobologram) in NCI-H1975; type: cell-based
[7] = system: BT-474 cell lines that overexpress HER2; assay: Synergy with TKI (isobologram) in BT-474; type: cell-based
[8] = system: Calu-3 lung cancer cell lines that overexpresses HER2; assay: Synergy with TKI (isobologram) in Calu-3; type: cell-based
trypsin = assay: Stability in trypsin (HPLC); type: in vitro ADME; conditions: pH 7.4, 37° C, 24 hours
Procedure: The trypsin inhibition assay was performed with a modified Erlanger's method. […] Samples at different incubation times were analyzed by HPLC.

[9] = Thermal stability by MALDI-TOF mass spectrometry; type: physicochemical; conditions: 25° C., 50° C., 80° C., MALDI-TOF-MS
Procedure: FIGS. 12A-12C are three charts showing thermal stability of the disclosed H2TPFGGoCSs using mass spectrometry.
(§2) However, CD spectra of peptides provide the information about the overall average conformation of the peptide in solution. To verify that the peptide was stable even at high temperature, the samples of peptide that were heated to 80 C was analyzed by mass spectrometry. […] The CD spectra of compound 18 was also verified using mass spectrometry analysis (FIG. 22).

[10] = system: A549 Red-FLuc NSCLC cells; assay: A549 Red-FLuc lung cancer model in athymic nude mice; type: in vivo, mice (Foxn1-nude); conditions: 6 mg/kg IV twice a week
Procedure: A549 cells with luciferase were injected to induce lung cancer in mice (Foxn1-nude). One week after injection of cells, mice were monitored for lung cancer development using luciferin imaging. Peptide was administered via IV twice a week after 2 weeks of cell injections. Representative images: In the control group (row 1) lung cancer tumor growth increased in 5 weeks.
FIG. 17 is a chart showing relative luminescence intensity (total photon flux/sec) plotted for 3 animals and a control.
FIG. 18A is a plot of relative luminescence intensity (total photon flux/sec) plotted for 4 animals and controls from the lung cancer study, *p<0.05, and FIG. 18B is a plot displaying bodyweight change of mice during the study.
Athymic nude mice (Foxn1-nude, 6-7 weeks old) were purchased from Harlan laboratories. Mice were acclimatized for one week in the vivarium. 4.5×10^6 A549 Red-FLuc NSCLC cells in 150 μL PBS were injected into each mouse via tail vein (IV). Total of four mice were injected with cells. Mice were monitored for 2 weeks. After 1 week, mice were injected with luciferin (200 μL in PBS, IP injection) and imaged under anesthesia using IVIS (Perkin Elmer) instrument. Bioluminescence was measured from each animal. One animal was used as a control. Peptide treatment started after 2 weeks from injection of cells and peptide was prepared in PBS and administered via i.v. with a dose of 6 mg/kg in 100 μL twice a week. Animals were imaged once a week to monitor the progression of lung cancer. Images were quantified using Living Image Software (Perkin Elmer). Bioluminescence signal for each mouse was expressed as total flux of photons/sec. Region of interest tool was used to measure the total photon flux/sec. A graph of bioluminescence for each mouse was plotted with respect to time (each week). After five weeks mice were terminated, and tumor sections and lungs were removed by surgical procedure. Tumor sections were fixed, embedded in […], and cut into 5 μm slices. […] Images were viewed under a fluorescence microscope (Olympus BX63 microscope) at 40× magnification. […]

[11] = Thermal stability by CD spectroscopy; type: physicochemical; conditions: temperature changed from 25 to 80° C. (85 C)
Procedure: Overall conformation of the peptide remained the same at all temperatures studied.
as §2

[12] = system: HER2-overexpressing lung cancer Calu-3 cell lines; conditions: read-out: antiproliferative activity IC50
Procedure: as §1

[13] = system: HER2 overexpressing BT-474 breast cancer cell lines; conditions: read-out: antiproliferative activity IC50
Procedure: as §1

[14] = system: MCF-7 cell lines that do not overexpress the HER2 protein
Procedure: as §1

[15] = biological target: HER2 protein extracellular domain (ECD) (Homo sapiens, UniProt P04626); assay: SPR binding to HER2 extracellular domain; conditions: SPR sensorgram
Excerpt: Surface plasmon resonance (SPR) analysis of binding of grafted peptide with HER2 ECD protein at different concentrations. […] SPR analysis of binding of grafted peptide with HER2 ECD domain IV protein at different concentrations.
To evaluate the binding of the grafted peptide to HER2 protein ECD, surface plasmon resonance (SPR) analysis was used.

[16] = biological target: T1, human serum albumin (HSA) (human, UniProt P02768 25-609); assay: SPR
T1 construct: also called HSA protein
T1 sequence (P02768 25-609 limits assumed): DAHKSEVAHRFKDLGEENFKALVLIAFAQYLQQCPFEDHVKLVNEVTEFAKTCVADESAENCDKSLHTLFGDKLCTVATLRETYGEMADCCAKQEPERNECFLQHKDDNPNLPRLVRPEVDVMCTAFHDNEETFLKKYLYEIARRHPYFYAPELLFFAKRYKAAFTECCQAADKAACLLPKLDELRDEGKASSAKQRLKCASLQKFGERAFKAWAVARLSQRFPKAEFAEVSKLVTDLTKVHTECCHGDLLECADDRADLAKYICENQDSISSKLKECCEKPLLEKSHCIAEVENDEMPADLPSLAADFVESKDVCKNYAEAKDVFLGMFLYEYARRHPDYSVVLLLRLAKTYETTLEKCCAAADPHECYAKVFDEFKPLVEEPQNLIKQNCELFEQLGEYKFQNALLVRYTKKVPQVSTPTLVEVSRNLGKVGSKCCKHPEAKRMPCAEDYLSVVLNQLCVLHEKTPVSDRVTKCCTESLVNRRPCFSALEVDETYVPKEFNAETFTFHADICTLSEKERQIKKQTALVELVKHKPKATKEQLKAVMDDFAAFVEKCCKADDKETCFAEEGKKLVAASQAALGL

N=C(N)NCCC[C@@H]1NC(=O)[C@H]2CCCN2C(=O)[C@@H]2CCCN2C(=O)[C@H](CCCNC(=N)N)NC(=O)C[C@H](c2cccc3ccccc23)NC(=O)[C@H](Cc2ccccc2)NC(=O)[C@H](CC(=O)O)NC(=O)[C@H](CC(=O)O)NC(=O)[C@H](Cc2ccccc2)NC(=O)C[C@H](c2cccc3ccccc23)NC1=O [compound 18, reference compound] (cyclo(P[dP]R[βAla(3R-(1-naphthyl))]FDDF[βAla(3R-(1-naphthyl))]R)) gave an IC50 [1] of 40 µM and a solubility [2] of under 500 µg/mL.

For CC[C@H](C)[C@@H]1NC(=O)[C@H](CCCNC(=N)N)NC(=O)C[C@@H](c2cccc3ccccc23)NC(=O)[C@@H]2CSSC[C@H](NC(=O)C[C@@H](c3cccc4ccccc34)NC(=O)[C@H](CCCNC(=N)N)NC(=O)[C@@H]3CCCN3C(=O)[C@@H]3CCCN3C1=O)C(=O)N[C@@H](Cc1ccccc1)C(=O)N1CCC[C@H]1C(=O)N[C@@H](CC(=O)O)C(=O)N[C@@H](CC(=O)O)C(=O)N[C@@H](Cc1ccccc1)C(=O)N2 [SFTI-G5, Cyclo(C(S-X)RIPPR(S-X)CFPDDF)], the IC50 [3] was 4.22 µM, the “inhibition of HER2 phosphorylation” value [4] was “inhibits phosphorylation of HER2 kinase; also recorded: reduces HER2 phosphorylation” and the “antiproliferative activity, times less in noncancerous breast cell lines compared to Calu-3” value ([1]; MCF-10A vs Calu-3) was “more than 500 times”. The IC50 [1] was 40 µM, the “time of stability in human serum” value ([5]; 2 mg/mL in human serum, HPLC) was “up to 50 h” and the remaining at 50 h, 2 mg/mL ([5]; human, human serum, up to 50 h, read-out: intact peptide in human serum) was about 60%. The “synergistic effect with erlotinib (isobologram)” value ([6]; NCI-H1975, combination with erlotinib) was “synergistic”, the “synergistic effect with lapatinib (isobologram)” value ([6]; NCI-H1975, combination with lapatinib) was “synergistic” and the “synergistic effect with erlotinib (isobologram)” value ([7]; BT-474, combination with erlotinib) was “synergistic”. The “synergistic effect with lapatinib (isobologram)” value ([7]; BT-474, combination with lapatinib) was “synergistic”, the “synergistic effect with erlotinib (isobologram)” value ([8]; Calu-3, combination with erlotinib) was “synergistic” and the “synergistic effect with lapatinib (isobologram)” value ([8]; Calu-3, combination with lapatinib) was “synergistic”. For the same molecule, the stability in trypsin (trypsin) was “stable in trypsin assay”, the “thermal stability, mass spectrometry” value [9] was “stable up to 80 C; also recorded: thermally stable” and the “histological analysis of lung tissue” value [10] was “reduced pathological features associated with tumor development”. The “tumor growth (bioluminescence, total photon flux/sec)” value ([10]; weeks 4 and 5, vs control) was “reduced growth of tumors; also recorded: tumor growth was reduced compared to the control group; also recorded: reduction in the luminescence intensity of tumors”, the “body weight change of mice” value ([10]; during the study) was “No changes in body weight were observed” and the “appearance in water (turbidity)” value [2] was “slightly turbid”. The “thermal stability, CD spectra” value [11] was “stable from 25 C to 85 C; also recorded: more stable than compound 18; also recorded: no significance difference in the CD spectra”, the IC50 [12] was 0.073 µM and the IC50 [13] was 0.28 µM. The “antiproliferative activity, times less against HER2-ve cell lines” value ([14]; as printed: less than its activity against HER2-ve cell lines) was about 300 times and the IC50 ([14]; read-out: antiproliferative activity IC50, MCF-7) was 25 µM.

With “H2N—K(3-aminobiphenyl propionic acid)F—OH [control peptide]” the “binding to HER2 protein (in words)” value [15] was “does not bind to HER2 protein; also recorded: no binding was observed”.

With “Cyclo(C(S-X)RIHyPHyPR(S-X)CFPDDF) [SFTI-G7]” the “appearance in water (turbidity)” value [2] was “slightly turbid”.

B1: SFTI-G5 (peptide)
peptide: cyclo(C[βAla(3S-(1-naphthyl))]RIPPR[βAla(3S-(1-naphthyl))]CFPDDF)
modifications: disulfide 1-9
notes: also called grafted peptide; grafted SFTI peptide
For B1, the Kd [16] was 56.9 µM and 56 µM.
